Measured values: patent US8389527B2, “Substituted imidazopyridazines useful as kinase inhibitors” (Bristol-Myers Squibb Company, priority 2008, dated 2013)

How the values were obtained:
HCT116 = experiment: Cell proliferation inhibition assay (MTT, CellTiter96); format: cell-based; conditions: Homo sapiens, HCT-116; HCT116 cells, 72 h with compound, MTT readout
Experimental: B. Cell Proliferation Inhibition Assay
Compounds were evaluated for their ability to inhibit cell proliferation, using an assay that measures mitochondrial metabolic activity, that is directly correlated with cell numbers. Cells were plated at 2000 cells/well in 96-well plates and were cultured for 24 h in RPMI-1640 supplemented with 2% fetal bovine serum, before test compounds were added. Compounds were diluted in culture medium such that the final concentration of dimethyl sulfoxide never exceeded 1%. Following the addition of compounds, the cells were cultured for an additional 72 h before cell viability was determined by measuring the conversion of 3-(4,5-dimethylthiazol-2-yl)-2,5-diphenyltetrazolium bromide (MTT) dye using the CellTiter96 kit (Promega).

recombinant CK2A1 = molecular target: T1, recombinant CK2A1 (Homo sapiens, UniProt P68400); experiment: CK2 kinase assay (CK2A1), [γ-33P]ATP filter-binding; format: biochemical; conditions: recombinant CK2A1 10 nM, ATP 25 μM, 10 μM peptide substrate, 30° C. 1 h
T1 construct: purchased Invitrogen
T1 sequence (P68400 whole entry): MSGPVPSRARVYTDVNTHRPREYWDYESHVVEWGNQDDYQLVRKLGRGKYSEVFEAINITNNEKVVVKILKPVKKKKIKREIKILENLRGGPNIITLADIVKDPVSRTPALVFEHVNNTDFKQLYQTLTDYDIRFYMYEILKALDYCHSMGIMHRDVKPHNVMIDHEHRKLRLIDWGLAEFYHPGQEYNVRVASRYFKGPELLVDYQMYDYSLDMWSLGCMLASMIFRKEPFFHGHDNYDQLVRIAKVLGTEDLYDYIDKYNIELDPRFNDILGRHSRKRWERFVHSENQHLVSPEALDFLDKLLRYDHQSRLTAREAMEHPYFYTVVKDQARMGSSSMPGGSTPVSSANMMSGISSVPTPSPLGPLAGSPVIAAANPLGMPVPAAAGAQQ
Experimental: (§1) The effectiveness of compounds of the present invention as inhibitors of protein kinases can be readily tested by assays known to those skilled in the art. For example, in vitro protein kinase assays may be conducted with a relevant purified protein kinase and an appropriate synthetic substrate to determine the inhibitory activities of the compounds. […] Reaction mixtures were incubated at 30° C. for 1 h, and reaction products were captured by binding to phosphocellulose (P81) filter plates. Incorporation of radioactive phosphate into the peptide substrate was determined by liquid scintillation counting. The potency of compounds in inhibiting CK2 is expressed as IC50, defined as the concentrations of compounds required to inhibit the enzymatic activity by 50%.

recombinant CK2A2 = molecular target: T2, recombinant CK2A2 (Homo sapiens, UniProt P19784); experiment: CK2 kinase assay (CK2A2), [γ-33P]ATP filter-binding; format: biochemical; conditions: recombinant CK2A2 5 nM, ATP 5 μM, 10 μM peptide substrate, 30° C. 1 h
T2 construct: purchased Upstate Biotechnology
T2 sequence (P19784 whole entry): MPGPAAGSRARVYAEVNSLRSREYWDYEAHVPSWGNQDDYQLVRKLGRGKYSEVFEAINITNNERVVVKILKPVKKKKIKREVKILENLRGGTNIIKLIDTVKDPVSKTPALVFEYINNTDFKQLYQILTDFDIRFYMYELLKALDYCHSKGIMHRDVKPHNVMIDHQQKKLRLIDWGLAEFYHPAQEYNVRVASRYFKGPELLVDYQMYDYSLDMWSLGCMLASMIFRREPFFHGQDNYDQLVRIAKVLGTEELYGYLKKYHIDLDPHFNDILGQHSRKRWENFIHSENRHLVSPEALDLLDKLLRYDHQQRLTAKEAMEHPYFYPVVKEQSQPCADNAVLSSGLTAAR
Experimental: as §1

Row | Compound | IC50 (HCT116) [nM] | IC50 (recombinant CK2A1) [nM] | IC50 (recombinant CK2A2) [nM]
1 | O=C(Nc1ccnc(Cl)c1)c1cnc2c(NC3CC3)cc(N[C@H]3CC[C@H](NCCO)CC3)nn12 [Example 531, N-(2-chloro-4-pyridinyl)-8-(cyclopropylamino)-6-((trans-4-((2-hydroxyethyl)amino)cyclohexyl)amino) imidazo[1,2-b]pyridazine-3-carboxamide] | 260 | 28 | 3
2 | O=C(Nc1ccnc(Cl)c1)c1cnc2c(NC3CC3)cc(N[C@H]3CC[C@H](N(CCO)CCO)CC3)nn12 [Example 534, 6-((trans-4-(bis(2-hydroxyethyl)amino)cyclohexyl)amino)-N-(2-chloro-4-pyridinyl)-8-(cyclopropylamino)imidazo [1,2-b]pyridazine-3-carboxamide] | 1610 | 559 | 145
3 | CC(C)CN[C@H]1CC[C@H](Nc2cc(NC3CC3)c3ncc(C(=O)Nc4ccnc(Cl)c4)n3n2)CC1 [Example 538, N-(2-chloro-4-pyridinyl)-8-(cyclopropylamino)-6-((trans-4-(isobutylamino)cyclohexyl)amino)imidazo [1,2-b]pyridazine-3-carboxamide] | 340 | 331 | 42
4 | Cc1cc(Nc2cc(N[C@H]3CC[C@H](N)CC3)nn3c(C(=O)Nc4ccnc(Cl)c4)cnc23)nn1C [Example 542, 6-((trans-4-aminocyclohexyl)amino)-N-(2-chloro-4-pyridinyl)-8-((1,5-dimethyl-1H-pyrazol-3-yl)amino)imidazo[1,2-b]pyridazine-3-carboxamide] | 290 | 71 | 18
5 | O=C(Nc1ccnc(Cl)c1)c1cnc2c(Nc3ccon3)cc(N[C@H]3CC[C@H](O)CC3)nn12 [Example 549, N-(2-chloro-4-pyridinyl)-6-((trans-4-hydroxycyclohexyl)amino)-8-(3-isoxazolylamino) imidazo[1,2-b]pyridazine-3-carboxamide] | 20 | 26.3 | 0.03
6 | Cc1cc(Nc2cc(N[C@H]3CC[C@H](O)CC3)nn3c(C(=O)Nc4ccnc(Cl)c4)cnc23)nn1C [Example 553, N-(2-chloro-4-pyridinyl)-8-((1,5-dimethyl-1H-pyrazol-3-yl)amino)-6-((trans-4-hydroxycyclohexyl)amino)imidazo[1,2-b]pyridazine-3-carboxamide] | 40 | 19.6 | 2.1
7 | CC(C)n1ccc(Nc2cc(N[C@H]3CC[C@H](NC(=O)CC#N)CC3)nn3c(C(=O)Nc4ccnc(Cl)c4)cnc23)n1 [Example 559, N-(2-chloro-4-pyridinyl)-6-((trans-4-((cyanoacetyl)amino)cyclohexyl)amino)-8-((1-isopropyl-1H-pyrazol-3-yl)amino)imidazo[1,2-b] pyridazine-3-carboxamide] | 80 | 5.5 | 1
8 | Cc1cc(Nc2cc(N[C@H]3CC[C@H](NC(=O)CC#N)CC3)nn3c(C(=O)Nc4ccnc(Cl)c4)cnc23)no1 [Example 560, N-(2-chloro-4-pyridinyl)-6-((trans-4-((cyanoacetyl)amino)cyclohexyl)amino)-8-((5-methyl-3-isoxazolyl)amino) imidazo[1,2-b]pyridazine-3-carboxamide] | 870 | 12.5 | 0.8
9 | N#CCC(=O)N[C@H]1CC[C@H](Nc2cc(Nc3nccs3)c3ncc(C(=O)Nc4ccnc(Cl)c4)n3n2)CC1 [Example 562, N-(2-chloro-4-pyridinyl)-6-((trans-4-((cyanoacetyl)amino)cyclohexyl)amino)-8-(1,3-thiazol-2-ylamino)imidazo [1,2-b]pyridazine-3-carboxamide] | 60 | 9.7 | 1.2
10 | O=C(Nc1ccnc(Cl)c1)c1cnc2c(NC3CC3)cc(NC3CCSCC3)nn12 [Example 571, N-(2-chloro-4-pyridinyl)-8-(cyclopropylamino)-6-(tetrahydro-2H-thiopyran-4-ylamino)imidazo[1,2-b]pyridazine-3-carboxamide] | 890 | 428 | 97
11 | O=C(Nc1ccnc(Cl)c1)c1cnc2c(NC3CC3)cc(NC3CC[S+]([O-])CC3)nn12 (stereo not drawn) [Example 572, 4-((3-((2-chloro-4-pyridinyl)carbamoyl)-8-(cyclopropylamino)imidazo[1,2-b]pyridazin-6-yl)amino)tetrahydro-2H-thiopyranium-1-olate] | 800 | 306 | 73
